Tested on: patients with advanced solid tumors
Test: phase I dose escalation: safety, DLT, MTD, RP2D (CTCAE v. 5)
Assay type: in vivo
Conditions: 5:2, 300 mg (N=6)
Excerpt: Subsequent dosing cohorts were enrolled using a standard 3 + 3 design.
If any patient in any cohort of three patients developed a DLT during cycle 1, an additional three patients were recruited to expand the cohort to up to six evaluable patients. If two or more patients in any expanded cohort developed a DLT, this dose was considered non-tolerated, and dose escalation was discontinued. The MTD was defined as the highest dose level for which no more than one of six patients experienced a DLT.
Patients were continuously evaluated for adverse events throughout the study using the Common Terminology Criteria of Adverse Events (CTCAE v. 5). The patients underwent a clinical history and physical examination, an ECOG PS, a complete blood count (CBCs), chemistry, coagulation studies, urinalysis, a serum pregnancy test (as applicable), a triplicate ECG, an ophthalmology examination, and baseline tumor assessment at screening. During cycle 1, weekly history and physical examination, CBC, chemistry, coagulation parameters, urinalysis, and triplicate ECGs were performed; in subsequent cycles, weekly labs were limited to a CBC. Repeat ophthalmology examinations were performed at cycle 3, day 1, and at the end of treatment. Repeat tumor assessment was performed every 2 cycles (6 weeks) in accordance with RECIST 1.1.

CC(C)[C@H](N)C(=O)SCC/C=C/[C@@H]1CC(=O)NCc2nc(cs2)C(=O)NC(C)(C)C(=O)N[C@@H](C(C)C)C(=O)O1 [OKI-179, Bocodepsin]
TEAE: Aspartate aminotransferase increased (All grades): 1 (17) N (%) | TEAE: Back pain (All grades): 2 (33) N (%) | TEAE: Bile duct stenosis (All grades): 1 (17) N (%) | TEAE: Blood alkaline phosphatase increased (All grades): 1 (17) N (%) | TEAE: Decreased appetite (All grades): 2 (33) N (%) | TEAE: Dehydration (All grades): 1 (17) N (%) | TEAE: Dysphagia (All grades): 1 (17) N (%) | TEAE: ECG QT prolonged (All grades): 2 (33) N (%) | TEAE: Enterococcal bacteremia (All grades): 1 (17) N (%) | TEAE: Esophagitis (All grades): 1 (17) N (%) | TEAE: Esophagoscopy (All grades): 1 (17) N (%) | TEAE: Eye pain (All grades): 1 (17) N (%) | TEAE: Fatigue (All grades): 4 (67) N (%) | TEAE: Gastritis (All grades): 1 (17) N (%) | TEAE: Hypomagnesaemia (All grades): 1 (17) N (%) | TEAE: Myalgia (All grades): 1 (17) N (%) | TEAE: Nausea (All grades): 5 (83) N (%) | TEAE: Neutrophil count decreased (All grades): 1 (17) N (%) | TEAE: Oropharyngeal pain (All grades): 1 (17) N (%) | TEAE: Pain in extremity (All grades): 1 (17) N (%) | TEAE: Paresthesia (All grades): 1 (17) N (%) | TEAE: Platelet count decreased (All grades): 4 (67) N (%) | TEAE: Pneumonitis (All grades): 1 (17) N (%) | TEAE: Pneumothorax (All grades): 1 (17) N (%) | TEAE: Vomiting (All grades): 3 (50) N (%) | TEAE: Abdominal pain (G1): 0 N (%) | TEAE: Anemia (G1): 1 (17) N (%) | TEAE: Aspartate aminotransferase increased (G1): 1 (17) N (%) | TEAE: Back pain (G1): 1 (17) N (%) | TEAE: Bile duct stenosis (G1): 0 N (%) | TEAE: Blood alkaline phosphatase increased (G1): 1 (17) N (%) | TEAE: Decreased appetite (G1): 0 N (%) | TEAE: Dehydration (G1): 1 (17) N (%) | TEAE: Dysphagia (G1): 0 N (%) | TEAE: ECG QT prolonged (G1): 2 (33) N (%) | TEAE: Enterococcal bacteremia (G1): 0 N (%) | TEAE: Esophagitis (G1): 1 (17) N (%) | TEAE: Esophagoscopy (G1): 0 N (%) | TEAE: Eye pain (G1): 1 (17) N (%) | TEAE: Fatigue (G1): 1 (17) N (%) | TEAE: Gastritis (G1): 1 (17) N (%) | TEAE: Hypomagnesaemia (G1): 1 (17) N (%) | TEAE: Myalgia (G1): 1 (17) N (%) | TEAE: Nausea (G1): 4 (67) N (%) | TEAE: Neutrophil count decreased (G1): 1 (17) N (%) | TEAE: Oropharyngeal pain (G1): 0 N (%) | TEAE: Pain in extremity (G1): 0 N (%) | TEAE: Paresthesia (G1): 1 (17) N (%) | TEAE: Platelet count decreased (G1): 4 (67) N (%) | TEAE: Pneumonitis (G1): 0 N (%) | TEAE: Pneumothorax (G1): 0 N (%) | TEAE: Vomiting (G1): 2 (33) N (%) | TEAE: Abdominal pain (G2): 1 (17) N (%) | TEAE: Anemia (G2): 0 N (%) | TEAE: Aspartate aminotransferase increased (G2): 0 N (%) | TEAE: Back pain (G2): 0 N (%) | TEAE: Bile duct stenosis (G2): 0 N (%) | TEAE: Blood alkaline phosphatase increased (G2): 0 N (%) | TEAE: Decreased appetite (G2): 1 (17) N (%) | TEAE: Dehydration (G2): 0 N (%) | TEAE: Dysphagia (G2): 1 (17) N (%) | TEAE: ECG QT prolonged (G2): 0 N (%) | TEAE: Enterococcal bacteremia (G2): 0 N (%) | TEAE: Esophagitis (G2): 0 N (%) | TEAE: Esophagoscopy (G2): 1 (17) N (%) | TEAE: Eye pain (G2): 0 N (%) | TEAE: Fatigue (G2): 3 (50) N (%) | TEAE: Gastritis (G2): 0 N (%) | TEAE: Hypomagnesaemia (G2): 0 N (%) | TEAE: Myalgia (G2): 0 N (%) | TEAE: Nausea (G2): 0 N (%) | TEAE: Neutrophil count decreased (G2): 0 N (%) | TEAE: Oropharyngeal pain (G2): 1 (17) N (%) | TEAE: Pain in extremity (G2): 1 (17) N (%) | TEAE: Paresthesia (G2): 0 N (%)

From paper PMC10778198, “First-in-Human Dose-Escalation Study of the Novel Oral Depsipeptide Class I-Targeting HDAC Inhibitor Bocodepsin (OKI-179) in Patients with Advanced Solid Tumors” (Cancers, 2023)
